# Test results from patent US20160015813A1, “NOVEL AND SYNERGISTIC COMPOSITION OF LECITHIN AND LYSOLECITHIN FOR IMPROVING BIOAVAILABILITY AND SOLUBILITY OF HYDROPHOBIC COMPOUNDS AND EXTRACTS” (priority 2014, published 2016).
# Read-outs that look alike come from different tables or passages of the source.
# Experiment: Oral bioavailability study of berberine formulation versus unformulated berberine (berberine concentration in serum)
# Assay type: in vivo, Sprague Dawley rats
# Conditions: Sprague Dawley, rat
# Method: The study was conducted to evaluate the bioavailability of orally administered curcuminoid compositions (Table 1 and Example. 2), formulated using a synergistic combination of lecithin and lysolecithin in Sprague Dawley rats. Compositions formulated with lecithin or lysolecithin alone were also tested along with Meriva (Batch No FG-6558). These formulations were prepared using similar procedure described in examples 2 and 3. Total of twelve (12) animals were divided into four groups having three animals in each group. The test substances were administered orally to the animals via oral gavage once at 125 mg/Kg body weight active ingredient equivalent to Active ingredient. Pre-dose or 0th time blood samples were collected from all the animals before dosing the test substance, followed by blood sampling at 0.15, 0.5, 1, 1.5, 2, 4, 8, 12 and 24 hrs after dosing the test substance by sinus orbital plexus under anesthesia. Serum was separated from blood by centrifugation and was subjected to LC-MS/MS analysis for estimation of curcumin concentration in serum samples.
# The similar protocol was used for the evaluation of oral bio-availability of berberine formulation (Example. 3) in comparison with the unformulated berberine and for estimation of berberine concentration in serum samples. The berberine compound and its formulations were supplemented to the animals at a dose equivalent to 100 mg/kg bodyweight of active Berberine.
structure (smiles),measurement,setting,value
"COc1ccc2cc3[n+](cc2c1OC)CCc1cc2c(cc1-3)OCO2 [LI32001, Berberine]",AUC(0-t),"serum, 100 mg/kg bodyweight of active Berberine, single oral administration, read-out: Oral exposures (AUClast)",23.7 ± 7.99 ng·h/mL
same,Cmax,"rats, single oral dose equivalent to 100 mg/kg BW berberine, berberine in serum, 6 animals",4.2 ± 1.85 ng/mL
same,AUC(0-t),"rats, single oral dose equivalent to 100 mg/kg BW berberine, berberine in serum, 6 animals, read-out: AUClast (0-24 h)",23.7 ± 7.99 ng·h/mL
